What was measured:
[1] = tested on: Bone marrow mast cells (BMMCs); experiment: IgE-induced LAT phosphorylation in bone marrow mast cells; assay type: cell-based, mice; conditions: Mus musculus, BMMC; BMMCs from female BALB/C mice, sensitized with SPE-7, stimulated with DNP-BSA; upper bound is 'less than'; read-out: IC50, IgE-induced LAT phosphorylation
RBL-2H3 cells = experiment: IgE-induced Beta-hexosaminidase secretion in RBL-2H3 cells; assay type: cell-based; conditions: Rattus norvegicus, RBL-2H3, RBL-2H3 cells sensitized with SPE-7, stimulated with DNP-BSA; upper bound of each range is 'less than'; read-out: IC50, IgE-induced Beta-hexosaminidase secretion
Syk kinase = Syk kinase (Homo sapiens, UniProt P43405); experiment: Syk kinase enzymatic assay (Kit-Tyr 2 Peptide); assay type: biochemical; conditions: 8 concentrations, 1 μM down to 0.0003 μM; upper bound of each range is 'less than'; read-out: IC50: Enzymatic Activity (Syk kinase)

SMILES | IC50 [1] | IC50 (RBL-2H3 cells) | IC50 (Syk kinase)
COc1ccc(-c2cc3nccnc3c(NCC3CCCNC3)n2)cc1 (stereo not shown) [Compound 10] | 100 to 1000 nM | 100 to 1000 nM | 1 to 100 nM
CN(C)c1ccc(-c2cc3nccnc3c(NCC3CCCNC3)n2)cc1 (stereo not shown) [Compound 12] | 100 to 1000 nM | 1 to 100 nM | 1 to 100 nM
COc1ccc(-c2cc3nccnc3c(NC[C@H]3CCCNC3)n2)cc1F [Compound 35] | 100 to 1000 nM | 1 to 100 nM | 1 to 100 nM
CNc1ccc(-c2cc3nccnc3c(NCC3CCCNC3)n2)cc1 (stereo not shown) [Compound 44] | 100 to 1000 nM | 1 to 100 nM | 1 to 100 nM
c1cnc2c(NC[C@H]3CCCNC3)nc(-c3ccc(N4CCCC4)cc3)cc2n1 [Compound 70] | 100 to 1000 nM | 1 to 100 nM | 1 to 100 nM
c1cnc2c(N3CCC4(CCNC4)C3)nc(-c3ccc(N4CCOCC4)cc3)cc2n1 (stereo not shown) [Compound 71] | 100 to 1000 nM | 100 to 1000 nM | 1 to 100 nM
Nc1ccc(-c2cc3nccnc3c(NC[C@H]3CCCNC3)n2)cc1Cl [Compound 81] | 100 to 1000 nM | 100 to 1000 nM | 1 to 100 nM
CNc1ccc(-c2cc3nccnc3c(NC[C@H]3CCCNC3)n2)cc1 [Compound 82] | 100 to 1000 nM | 1 to 100 nM | 1 to 100 nM
COc1ccc(-c2cc3nccnc3c(NC[C@H]3CCCNC3)n2)cc1Cl [Compound 93] | 100 to 1000 nM | 1 to 100 nM | 1 to 100 nM
Cc1cc(-c2cc3nccnc3c(NC[C@H]3CCCNC3)n2)ccc1N1CCOCC1 [Compound 94] | 100 to 1000 nM | 100 to 1000 nM | 1 to 100 nM
c1cnc2c(NC[C@@H]3CNCCO3)nc(-c3ccc(N4CCOCC4)nc3)cc2n1 [Compound 99] | 100 to 1000 nM | 1 to 100 nM | 1 to 100 nM
c1cnc2c(N3CCC4(CCCNC4)C3)nc(-c3ccc(N4CCOCC4)cc3)cc2n1 (stereo not shown) [Compound 105] | 100 to 1000 nM | 1 to 100 nM | 1 to 100 nM
CN(C)c1ccc(-c2cc3nccnc3c(NC[C@@H]3CNCCO3)n2)cc1 [Compound 107] | 100 to 1000 nM | 1 to 100 nM | 1 to 100 nM
Cc1cc(-c2cc3nccnc3c(NC[C@@H]3CNCCO3)n2)ccc1N1CCOCC1 [Compound 116] | 100 to 1000 nM | 1 to 100 nM | 1 to 100 nM
CNc1ccc(-c2cc3nccnc3c(NC[C@@H]3CNCCO3)n2)cc1F [Compound 137] | 100 to 1000 nM | 1 to 100 nM | 1 to 100 nM
CNc1ccc(-c2cc3nccnc3c(NC[C@H]3CCCNC3)n2)cc1F [Compound 140] | 100 to 1000 nM | 1 to 100 nM | 1 to 100 nM
FC1CNCC(CNc2nc(-c3ccc(N4CCOCC4)cc3)cc3nccnc23)C1 (stereo not shown) [Compound 156] | 100 to 1000 nM | 1 to 100 nM | 1 to 100 nM
OC[C@@H]1CCN(c2nc(-c3ccc(N4CCOCC4)cc3)cc3nccnc23)C1 [Compound 159, (R)-(1-(7-(4-morpholinophenyl)pyrido[4,3-b]pyrazin-5-yl)pyrrolidin-3-yl)methanol] | 100 to 1000 nM | 1 to 100 nM | 100 to 1000 nM
C[C@H](O)CNc1nc(-c2ccc(N3CCOCC3)cc2)cc2nccnc12 [Compound 161] | 100 to 1000 nM | 100 to 1000 nM | 100 to 1000 nM
OC[C@H]1CCN(c2nc(-c3ccc(N4CCOCC4)cc3)cc3nccnc23)C1 [Compound 163, (S)-(1-(7-(4-morpholinophenyl)pyrido[4,3-b]pyrazin-5-yl)pyrrolidin-3-yl)methanol] | 100 to 1000 nM | 1 to 100 nM | 100 to 1000 nM

SMILES | IC50 [1] | IC50 (RBL-2H3 cells) | IC50 (Syk kinase)
c1cnc2c(NC3CC3)nc(-c3ccc(N4CCOCC4)cc3)cc2n1 [Compound 181] | 100 to 1000 nM | 100 to 1000 nM | 
c1cc(CNc2nc(-c3ccc(N4CCOCC4)cc3)cc3nccnc23)ccn1 [Compound 184] | 100 to 1000 nM | 100 to 1000 nM | 
CN(C)c1ccc(-c2cc3nccnc3c(NCCCN)n2)cc1 [Compound 185] | 100 to 1000 nM | 100 to 1000 nM | 1 to 100 nM
NC(=O)CCNc1nc(-c2ccc(N3CCOCC3)cc2)cc2nccnc12 [Compound 188] | 100 to 1000 nM | 1 to 100 nM | 100 to 1000 nM
CS(=O)(=O)N1CCO[C@H](CNc2nc(-c3ccc(C4CCN(CCO)CC4)cc3)cc3nccnc23)C1 [Compound 493] |  | 100 to 1000 nM | 1 to 100 nM
CS(=O)(=O)N1CCO[C@H](CNc2nc(-c3ccc(C4CCN(CCCO)CC4)cc3)cc3nccnc23)C1 [Compound 494] |  | 100 to 1000 nM | 1 to 100 nM
O=S(=O)(C1CC1)N1CCC(c2ccc(-c3cc4nccnc4c(NC[C@@H]4CNCCO4)n3)cc2)CC1 [Compound 497] |  | 1 to 100 nM | 1 to 100 nM
CNS(=O)(=O)N1CCC(c2ccc(-c3cc4nccnc4c(NC[C@@H]4CNCCO4)n3)cc2)CC1 [Compound 498] |  | 1 to 100 nM | 1 to 100 nM
CN(C)S(=O)(=O)N1CCC(c2ccc(-c3cc4nccnc4c(NC[C@@H]4CNCCO4)n3)cc2)CC1 [Compound 499] |  | 1 to 100 nM | 1 to 100 nM
CS(=O)(=O)N1CCC(Nc2ccc(-c3cc4nccnc4c(NC[C@@H]4CNCCO4)n3)cc2)CC1 [Compound 500] |  | 100 to 1000 nM | 1 to 100 nM
CS(=O)(=O)N1CCC(c2ccc(-c3cc4nccnc4c(NCC4CNC(=O)CO4)n3)cc2)CC1 (stereo not shown) [Compound 501] |  | 1 to 100 nM | 1 to 100 nM
CS(=O)(=O)N1CCCN(c2ccc(-c3cc4nccnc4c(NC[C@@H]4CNCCO4)n3)cc2)CC1 [Compound 502] |  | 100 to 1000 nM | 1 to 100 nM
CS(=O)(=O)N1CCN(Cc2ccc(-c3cc4nccnc4c(NC[C@@H]4CNCCO4)n3)cc2)CC1 [Compound 503] |  | 100 to 1000 nM | 1 to 100 nM
CCC(=O)N1CCC(c2ccc(-c3cc4nccnc4c(NC[C@@H]4CNCCO4)n3)cc2)CC1 [Compound 504] |  | 1 to 100 nM | 1 to 100 nM
COCC(=O)N1CCC(c2ccc(-c3cc4nccnc4c(NC[C@@H]4CNCCO4)n3)cc2)CC1 [Compound 505] |  | 1 to 100 nM | 1 to 100 nM
NC(=O)N1CCC(c2ccc(-c3cc4nccnc4c(NC[C@@H]4CNCCO4)n3)cc2)CC1 [Compound 506] |  | 100 to 1000 nM | 1 to 100 nM
CCS(=O)(=O)N1CCN(c2ccc(-c3cc4nccnc4c(NC[C@@H]4CN(C(C)=O)CCO4)n3)cc2)CC1 [Compound 510] |  | 100 to 1000 nM | 1 to 100 nM
O=C(CO)N1CCC(c2ccc(-c3cc4nccnc4c(NC[C@@H]4CNCCO4)n3)cc2)CC1 [Compound 511] |  | 1 to 100 nM | 1 to 100 nM
O=C(CCO)N1CCC(c2ccc(-c3cc4nccnc4c(NC[C@@H]4CNCCO4)n3)cc2)CC1 [Compound 512] |  | 100 to 1000 nM | 1 to 100 nM

Reference: US10052330B2, “Substituted pyrido[3,4-b]pyrazines as Syk inhibitors” (HUTCHISON MEDIPHARMA LIMITED, priority 2011, dated 2018)
